From patent US11179471B2, “Peptide for cytosolic delivery” (priority 2017, dated 2021)
Residues, ends and D or L forms follow the SMILES beside them.

Key:
HeLa cells [1] = experiment: Nuclear accumulation of NLS-EGFP; format: cell-based; conditions: NLS-EGFP 10 μM; peptide 40 μM; α-MEM(−) 1 hour
Procedure: The cells and NLS-EGFP (10 μM) were incubated in the presence of HAad or L17E (40 μM each) in α-MEM(−) medium for 1 hour in the same manner as in Example 6. If NLS-EGFP is intracellularly released while maintaining its activity, localization of green fluorescence in the nuclei is observed. […] A high activity of HAad to release endosome-encapsulated substances was also confirmed in this system.

NIH3T3 cells = experiment: Intracellular release of dextran (10 kDa) in NIH3T3 cells; format: cell-based
Procedure: Intracellular release of dextran is more difficult in NIH3T3 cells than in HeLa cells. NIH3T3 cells and dextran (10 kDa) were incubated in the presence of HAad, HA/E2, or L17E (40 μM each) in DEME(−) medium for 1 hour in the same manner as in Example 6.

[2] = tested on: mitochondrial membrane of HeLa cells; conditions: HeLa; 40 μM, 1 hour in α-MEM(−); Lipofectamine LTX/pCI complex overnight in α-MEM(+)
Excerpt: Mitochondrial membranes are considered to be rich in acidic lipid, as compared with cell membranes. Accordingly, the effects of the above peptides on a mitochondrial membrane were examined by JC-1 assay. A JC-1 reagent emits red (J-aggregate) fluorescence when the mitochondrial membrane is kept normal and the membrane potential is maintained; and the JC-1 reagent emits green (J-monomer) fluorescence when the mitochondrial membrane is damaged and the membrane potential is not kept normal. After HeLa cells were incubated with HAad, HA/E2, or L17E (40 μM) in α-MEM(−) for 1 hour, JC-1 assay was performed. The percentage of cells that emitted red fluorescence was assayed by flow cytometry.

HeLa cells [3] = experiment: Release of Alexa 488-dextran (10 kDa) into the cytoplasm, confocal microscopy; format: cell-based
[4] = Helix content from CD spectra in the presence of POPC/POPG (3:1) liposomes; format: physicochemical; conditions: result in words (FIG. 1)
Procedure: The helix content was calculated by the method of Y. H. Chen et al., 1972, based on 222-nm molar ellipticity ([…]) using the following formula: Helicity (%)=−([θ]222+2340)/30300*100.
The helix content of the peptides obtained in Example 1 (L17E, L17E/Q21E, L17Aad, HA/E1, HA/E2, and HAad) was calculated in the presence of POPC/POPG (3:1) liposomes by the method of Y. H. Chen et al., 1972, based on 222-nm molar ellipticity ([θ]222) using the following formula: Helix content (%)=−([θ]222+2340)/30300*100. Further, the CD spectra of the peptides were measured.

[5] = tested on: HeLa cells transfected with a plasmid encoding loxP-DsRed-loxP-EGFP; experiment: Genetic recombination assay by intracellular delivery of Cre protein (EGFP expression); format: cell-based
Procedure: HeLa cells transfected with a plasmid encoding loxP-DsRed-loxP-EGFP, which were prepared in the same manner as in the Examples of PTL 2, were incubated with His-tag fusion Cre (Cre-Hiss) (10 μM) in the presence of HAad, HA/E2, or L17E (40 μM each) for 1 hour. This system was designed to express EGFP when intracellular release of Cre protein induces genetic recombination. […] The proportions of GFP-expressing cells in the cells treated with HAad, HA/E2, and L17E were 41%, 36%, and 30%, respectively. Considering the fact that the EGFP expression efficiency achieved with no administration of a release peptide was 9%, peptide administration of HAad, HA/E2, and L17E can be considered to increase genetic recombination by 32%, 27%, and […], respectively, as compared with no peptide administration.

HeLa cells [6] = experiment: Intracellular release of Alexa 488-labeled human immunoglobulin (IgG, circa 160 kDa); format: cell-based; conditions: for cells in which intracellular release of human immunoglobulin was observed: α-MEM(−) 1 hour
Procedure: The cells and human immunoglobulin fluorescently labeled with Alexa 488 (IgG, circa 160 kDa) (500 μg/mL) were incubated in the presence of HAad, HA/E2, or L17E (40 μM each) in α-MEM(−) medium for 1 hour in the same manner as in Example 6.
The cells and human immunoglobulin fluorescently labeled with Alexa 488 (IgG, circa 160 kDa) (50 μg/mL: 1/10 the volume of Example 8) were incubated in the presence of HAad or L17E (40 μM each) in α-MEM(−) medium for 1 hour.
In the presence of HAad or L17E (20 μM each: ½ the amount used in Examples 8 and 9), the cells and human immunoglobulin fluorescently labeled with Alexa 488 (IgG, circa 160 kDa) (500 μg/mL: the same amount as in Example 8) were incubated in α-MEM(−) medium for 1 hour. […] (In FIG. 9, the intracellular release achieved by treatment with a low concentration of HAad was 2.5 times the release achieved by L17E. With respect to the peptide concentration required to detect the signal of intracellularly released human immunoglobulin in 35% of the cells, the concentration of L17E is 40 μM, and the concentration of HAad is 20 μM, which is half the concentration of L17E.)

CC[C@H](C)[C@H](N)C(=O)N[C@@H](Cc1c[nH]c2ccccc12)C(=O)N[C@@H](CC(C)C)C(=O)N[C@H](C(=O)N[C@@H](C)C(=O)N[C@@H](CC(C)C)C(=O)N[C@@H](CCCCN)C(=O)N[C@@H](Cc1ccccc1)C(=O)N[C@@H](CC(C)C)C(=O)NCC(=O)N[C@@H](CCCCN)C(=O)N[C@@H](C)C(=O)N[C@@H](C)C(=O)N[C@@H](C)C(=O)N[C@@H](CCCCN)C(=O)N[C@@H](C)C(=O)N[C@@H](CCCC(=O)O)C(=O)N[C@@H](C)C(=O)N[C@@H](CCCCN)C(=O)N[C@@H](CCC(N)=O)C(=O)N[C@@H](CCCC(=O)O)C(=O)N[C@@H](CC(C)C)C(=O)N[C@@H](CO)C(=O)N[C@@H](CCCCN)C(=O)N[C@@H](CC(C)C)C(N)=O)[C@@H](C)O [HAad, H-IWLTALKFLGKAAAKAXAKQXLSKL-amide] (HELM PEPTIDE1{I.W.L.T.A.L.K.F.L.G.K.A.A.A.K.A.[O=C(O)CCC[C@H](N[*:1])C(=O)[*:2]].A.K.Q.[O=C(O)CCC[C@H](N[*:1])C(=O)[*:2]].L.S.K.L.[am]}$$$$V2.0)
cells in which localization of NLS-EGFP in the nuclei was observed (HeLa cells [1]): about 84% | intracellular release of dextran relative to L17E (NIH3T3 cells; 40 μM): twice | cells in which intracellular release of dextran was observed (NIH3T3 cells; peptide 40 μM, dextran (10 kDa), DEME(−) medium 1 hour): about 35% | effect on mitochondrial membrane (cells emitting red JC-1 fluorescence), in words [2]: no significant difference from the untreated case | EC50 (HeLa cells [3]; Alexa 488-dextran (10 kDa) 200 μg/mL, 1 hour, read-out: peptide concentration required to detect the signal of intracellularly released Alexa 488-dextran in 50% of the cells): 20 µM | EC50 relative to L17E (HeLa cells [3]; dextran release, HAad vs L17E): ½ | helicity in the presence of an acidic lipid membrane [4]: high helicity | proportion of GFP-expressing cells ([5]; Cre-His6 10 μM, peptide 40 μM, 1 hour, then 24 hours in α-MEM(+)): 41% | increase of genetic recombination as compared with no peptide administration ([5]; EGFP expression with no release peptide was 9%): 32% | peptide concentration required to detect the signal of intracellularly released human immunoglobulin in 35% of the cells (HeLa cells [6]; IgG 500 μg/mL, 1 hour): 20 µM | intracellular release of IgG relative to L17E (HeLa cells [6]; peptide 20 μM, IgG 500 μg/mL (FIG. 9)): 2.5 times | cells in which intracellular release of human immunoglobulin was observed (HeLa cells [6]; peptide 20 μM, IgG 500 μg/mL): about 37% | IgG dose required for intracellular IgG release in 50% of the cells, relative (HeLa cells [6]; peptide 40 μM, HAad treatment compared with L17E): 1/10 | intracellular release of IgG relative to L17E (HeLa cells [6]; peptide 40 μM, IgG 50 μg/mL (FIG. 8)): 5 times | cells in which intracellular release of human immunoglobulin was observed (HeLa cells [6]; peptide 40 μM, IgG 50 μg/mL): 50% | intracellular release of IgG relative to L17E (HeLa cells [6]; peptide 40 μM, IgG 500 μg/mL (FIG. 7)): twice | cells in which intracellular release of human immunoglobulin was observed (HeLa cells [6]; peptide 40 μM, IgG 500 μg/mL): about 70%
